What is called inhibition is the drop in the measured response relative to a control, in per cent.

What all share (assay type): cell-based
One series addresses T1, p53 binding to CBP (Homo sapiens, UniProt Q92793).
T1 construct: expressed in transfected cells; host or cells: HEK 293T
Put plainly: HA-CBP and Flag-p53 pull-down assay in HEK 293T cells. Particulars: doxorubicin treatment. The protocol:
HA-CBP and Flag-p53 were transfected into human embryonic kidney (HEK) 293T cells with recommended amount of Fugene 6 (Roche). After transfection, the HA-CBP and Flag-p53 co-transfected cells were treated with ischemin in the presence or absence of doxorubicin. To test the inhibitory potential of ischemin against CBP and p53 association, CBP was first immuno-precipitated by pulling-down with HA-agarose beads (Sigma) and its association with p53 was then determined with western blot using anti-Flag antibody (Sigma).
It was also investigated whether ischemin down-regulates p53 by blocking p53 binding to CBP. Haemaglutinin-tagged CBP(HA-CBP) and Flag-tagged p53 (Flag-p53) was overexpressed in human embryonic kidney (HEK) 293T cells.

The subject of a further series is p53. Put plainly: p21 luciferase assay (p53 inhibition) in U20S cells upon doxorubicin. Here is the method:
U20S Cells were transfected with p21 luciferase (1 μg) and renilla luciferase (100 ng) vectors in 6 well plate format using Fugene 6 (Roche). Briefly, total of 1.1 micrograms of vector was incubated with […] of Fugene 6 reagent for 30 min. After 3-4 hours of transfection, cell were treated with compounds for overnight, and then exposed to 300 nanogram of doxorubicin for next 24 hours. In these experiments, DMSO, transfected cells with empty vector and cell without doxorubicin were used as controls. DMSO concentration is maintained at 0.01%. Transfected cells with doxorubicin treatment were used as positive control. The luciferase activity was estimated by following the manufacturer's instruction (Promega) in a luminometer. […] The inhibitory activity (IC50) of a small molecule on p21 luciferase activity was obtained from the average of three biological replicates using PRISM software.

The next series relates to cardiomyocytes. Put plainly: TUNEL apoptosis assay in primary neonatal rat cardiomyocytes. The protocol: The ability of ischemin to inhibit apoptosis in cardiomyocytes under DNA damage stress was evaluated. Primary neonatal rat cardiomyocytes were isolated and maintained in culture, then, treated with doxorubicin for 24 hours to induce DNA damage in the presence or absence of ischemin. The DNA damage induced by apoptosis was analyzed by the TUNEL (terminal deoxynucleotidyl transferase dUTP nick and end labeling) assay, in which a terminal deoxynucleotidyl transferase was used to identify 3′-OH of DNA generated by DNA fragmentation resulting from apoptosis, and then labels it with biotinylated dUTP. The latter was then detected with avidin-conjugated FITC for specific staining. Neonatal rat ventricular myocytes (NRVMs) were isolated by enzymatic dissociation of cardiac ventricle from 1-to-2-day-old Sprague-Dawley pups using the Worthington neonatal cardiomyocyte isolation system (Worthington). Briefly, the pups were anesthetized and their hearts were excised. The ventricular tissues were minced in ice cold HBSS and then digested with trypsin overnight at 4° C. followed by collagenase treatment for 45 min at 37° C. […] After treatment with compounds overnight and then doxorubicin for 24 hours, the intensities of luminecnce were read. […]

T1 sequence (Q92793 whole entry): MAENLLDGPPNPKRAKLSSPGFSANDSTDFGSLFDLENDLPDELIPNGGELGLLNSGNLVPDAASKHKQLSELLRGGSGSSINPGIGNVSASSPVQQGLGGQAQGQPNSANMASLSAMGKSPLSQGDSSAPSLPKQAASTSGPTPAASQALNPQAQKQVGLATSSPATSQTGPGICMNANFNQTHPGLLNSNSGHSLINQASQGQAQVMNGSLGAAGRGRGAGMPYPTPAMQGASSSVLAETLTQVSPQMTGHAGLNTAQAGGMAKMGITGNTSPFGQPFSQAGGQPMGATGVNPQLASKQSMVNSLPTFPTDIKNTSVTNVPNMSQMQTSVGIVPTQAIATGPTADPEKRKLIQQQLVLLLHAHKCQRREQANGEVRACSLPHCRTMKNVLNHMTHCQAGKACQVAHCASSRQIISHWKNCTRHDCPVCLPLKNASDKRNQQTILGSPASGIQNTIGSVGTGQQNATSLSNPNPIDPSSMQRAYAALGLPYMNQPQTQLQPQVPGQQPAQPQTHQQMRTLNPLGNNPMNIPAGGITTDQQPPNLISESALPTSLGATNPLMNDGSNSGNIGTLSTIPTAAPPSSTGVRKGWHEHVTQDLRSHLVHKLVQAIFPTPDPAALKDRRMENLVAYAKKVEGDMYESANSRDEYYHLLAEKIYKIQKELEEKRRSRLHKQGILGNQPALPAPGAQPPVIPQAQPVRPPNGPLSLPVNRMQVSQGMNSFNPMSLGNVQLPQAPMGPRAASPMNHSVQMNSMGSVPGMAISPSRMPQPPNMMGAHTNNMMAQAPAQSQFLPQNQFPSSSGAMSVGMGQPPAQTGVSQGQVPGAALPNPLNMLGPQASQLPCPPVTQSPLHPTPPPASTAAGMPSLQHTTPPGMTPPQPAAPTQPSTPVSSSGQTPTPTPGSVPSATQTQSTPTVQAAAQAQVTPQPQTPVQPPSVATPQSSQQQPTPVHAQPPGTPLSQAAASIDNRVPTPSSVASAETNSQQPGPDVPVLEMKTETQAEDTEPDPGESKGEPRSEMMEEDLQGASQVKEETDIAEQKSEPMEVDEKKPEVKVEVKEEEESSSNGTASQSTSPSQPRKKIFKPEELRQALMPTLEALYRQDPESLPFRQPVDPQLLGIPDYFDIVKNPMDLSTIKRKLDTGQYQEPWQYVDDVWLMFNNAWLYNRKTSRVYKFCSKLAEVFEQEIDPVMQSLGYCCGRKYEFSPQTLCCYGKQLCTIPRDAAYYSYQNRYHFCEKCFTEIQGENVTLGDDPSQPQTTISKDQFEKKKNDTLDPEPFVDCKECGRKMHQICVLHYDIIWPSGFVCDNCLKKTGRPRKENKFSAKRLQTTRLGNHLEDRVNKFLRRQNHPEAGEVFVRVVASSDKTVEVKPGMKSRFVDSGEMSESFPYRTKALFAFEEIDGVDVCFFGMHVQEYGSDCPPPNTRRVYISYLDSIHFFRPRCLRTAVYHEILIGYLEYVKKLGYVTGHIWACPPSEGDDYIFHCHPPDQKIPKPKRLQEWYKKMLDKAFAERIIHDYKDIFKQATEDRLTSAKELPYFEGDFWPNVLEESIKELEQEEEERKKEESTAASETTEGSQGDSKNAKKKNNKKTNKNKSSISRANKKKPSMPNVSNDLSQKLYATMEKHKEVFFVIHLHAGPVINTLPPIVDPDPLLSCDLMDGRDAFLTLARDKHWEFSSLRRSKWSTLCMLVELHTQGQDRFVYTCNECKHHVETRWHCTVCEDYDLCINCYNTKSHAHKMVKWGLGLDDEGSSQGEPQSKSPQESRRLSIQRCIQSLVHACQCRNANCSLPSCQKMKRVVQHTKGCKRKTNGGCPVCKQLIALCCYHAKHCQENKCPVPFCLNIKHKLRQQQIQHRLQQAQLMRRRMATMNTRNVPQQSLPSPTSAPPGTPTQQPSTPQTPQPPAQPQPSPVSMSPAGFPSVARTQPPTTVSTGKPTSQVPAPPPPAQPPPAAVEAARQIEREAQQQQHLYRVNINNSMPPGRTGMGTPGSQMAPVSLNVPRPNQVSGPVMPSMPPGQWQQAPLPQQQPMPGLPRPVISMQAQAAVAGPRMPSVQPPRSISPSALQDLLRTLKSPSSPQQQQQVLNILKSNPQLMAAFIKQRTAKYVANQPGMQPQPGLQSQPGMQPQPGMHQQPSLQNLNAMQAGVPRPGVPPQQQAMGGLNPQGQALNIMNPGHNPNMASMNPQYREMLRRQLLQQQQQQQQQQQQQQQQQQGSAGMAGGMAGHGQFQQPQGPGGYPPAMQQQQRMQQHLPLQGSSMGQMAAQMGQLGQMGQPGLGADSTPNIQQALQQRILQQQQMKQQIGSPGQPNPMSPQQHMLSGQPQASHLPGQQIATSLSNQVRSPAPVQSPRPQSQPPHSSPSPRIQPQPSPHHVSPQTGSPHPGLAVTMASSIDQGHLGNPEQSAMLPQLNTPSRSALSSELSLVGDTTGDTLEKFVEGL

Consider `Cc1cc(/N=N/c2cc(S(=O)(=O)O)c(C)cc2C)c(N)cc1O` [Ischemin/MS120, 5-(2-amino-4-hydroxy-5-methylphenylazo)-2,4-dimethylbenzenesulfonic acid], for which the “Inhibition of p53 binding to CBP” value at p53 binding to CBP was “inhibiting in a dose-dependent manner”. The “Inhibition of p21 luciferase activity” value with p53 (U20S cells, FIG. 1A) is on record as “Dose-dependent inhibition”. Further, the “Ability to inhibit p53-dependent p21 luciferase activity / p21 expression (SAR, words)” value with p53 (compared with lead / ortho-methyl analogs) was “nearly completely suppresses”. In addition, the inhibition at 50 µM in the series on p53 (compounds at 50 μM, doxorubicin-treated U20S cells) was 104%. The Toxicity in cardiomyocytes entry in the series with cardiomyocytes (ischemin alone) was “no toxicity”. The “Inhibition of doxorubicin-induced apoptosis (TUNEL)” value in the series with cardiomyocytes (neonatal rat cardiomyocytes, doxorubicin 24 hours) is listed as “effectively inhibit”.

Source of the values: US20140066410A1, “INHIBITORS OF BROMODOMAINS AS MODULATORS OF GENE EXPRESSION” (ICAHN SCHOOL OF MEDICINE AT MOUNT SINAI, priority 2011, published 2014).
